US11684599B2, “Very-long-chain polyunsaturated fatty acids, elovanoid hydroxylated derivatives, and methods of use” (Board of Supervisors of Louisiana State University and …, priority 2017, dated 2023)

Experiments:
primary human RPE cells = experiment: UOS-induced cell death in primary human RPE cells (Hoechst staining); assay type: cell-based; conditions: NPD1 200 nM, 16 h; H2O2 (800 μM) alone 50% cell death
Experimental: Primary human retinal pigment epithelia (RPE) cells, prepared from donor eyes without eye pathology, were plated and transformed after passage eight. Cells were cultured in T75 flasks in MEM medium containing 10% FBS, 5% NCS, MEM-NEAA (ThermoFisher Scientific, Waltham, Mass.), 1× penicillin/streptomycin and 10 ng/ml FGF at 37° C. 5% CO2, 99% relative humidity for 24-48 h followed by a 24-h incubation with 10 μM free 32:6 and 34:6 fatty acid mixture.
For cell viability assay experiments hRPE cells were treated concomitantly with NPD1 (200 nM), 32-6, 34-6 (3 μM each) fatty acids or both 32-6 and 34-6 simultaneously. The hRPE medium was supplemented with 3 μM of 32-6 and 34-6 for the entire duration of the experiment. 15 lox-1 inhibitor (10 μM) was added to the cells 1 hour prior the OS induction and kept throughout the experiment. Cells were fixed with 4% PFA and stained with Hoescht.
To assess cell death, hRPE and ARPE-19 cells were fixed with methanol for 15 mins, washed with 1×PBS then loaded with 2 μM Hoechst dissolved in a Locke's solution (Promega) and incubated for another 15 mins before imaging. Cells were then viewed by using a Zeiss LSM 510 confocal microscope under UV fluorescence. Images were recorded and cell apoptosis was assessed by using an automated unbiased method.

[1] = system: cerebral-cortical mixed neuronal cells and hippocampal neurons; experiment: NMDA excitotoxicity of neurons in culture, cell viability; assay type: cell-based, rat
Excerpt: Primary cultures of cortical and hippocampal neurons were harvested from 18-day-old embryos (E18) taken from timed-pregnant, two-month-old Sprague-Dawley (SD) rats (Charles River Lab., Wilmington, Mass.). Briefly, timed-pregnant SD rats were euthanized and embryos were collected in sterile conditions. Embryonic brains were dissected out by forceps on ice and placed in a petri dish containing ice-cold Hank's Balanced Salt Solution (HBSS) (GIBCO). Meninges were removed under a dissecting microscope and cortical tissues were chopped into small pieces with micro-spring scissors. These tissues were transferred to 15 ml tubes containing trypsin-EDTA (0.025% in HBSS) and DNase I. The tubes were incubated in 37° C. chamber for 15 mins and were agitated every 5 mins. After stopping the trypsinization with 5 ml 10% FBS, these tissues were triturated 15 times with a fire polished Pasteur pipet. Cell clumps were left to settle for 2 mins and the supernatant was transferred to a 15 ml Eppendorf tube. The supernatant was filtered through a 70 μm pore-sized filter (Corning cell strainer) and centrifuged for 5 mins at 1000 rpm. The cells were then resuspended in Neurobasal medium (GIBCO) containing 2% B27 (GIBCO) and 2% N2 (GIBCO) supplements, along with 0.5 mM glutamine, 50 U/ml penicillin/streptomycin.
Cells were counted using a Neubauer hemocytometer. 1×10^6 cells were seeded on poly-D-lysine-coated 12 well cell culture dish (CORNING) and cultured in incubator (37° C., 5% CO2). Culture medium was first replaced after 24 h, then half of the medium was replaced with fresh medium every three days. As a result, approximately, 90% purity of neurons was obtained as determined by class-III-β tubulin, GFAP and Hoechst 33258 staining. Cells were maintained in culture for about 2 weeks until they were exposed to uncompensated oxidative stress, OGD, or NMDA excitotoxicity.
After 90 mins of OGD exposure, cells were returned to the original medium (Neurobasal medium (GIBCO) containing 2% B27 (GIBCO) and 2% N2 (GIBCO) supplements, along with 0.5 mM glutamine, 50 U/ml penicillin/streptomycin) and placed in a normoxic chamber (37° C., 5% CO2) for 2 h. Then the medium was changed with medium containing either ELV-N32 or ELV-N34 [500 nM] and maintained in a normoxic chamber (37° C., 5% CO2) for 12 h, after which cells were sampled and assayed for cell viability using different methods as previously described (25-28). Cerebral cortical mixed neuronal cells or hippocampal cells in culture were exposed to either NMDA or uncompensated oxidative stress (UOS) for 12 h by addition of either NMDA (25 μM, 50 μM, or 100 μM) concentration or by the addition of TNFα (10 ng/mL) and H2O2 (50 μM, 100 μM, or 200 μM). Cell viability and neuroprotection in the presence of ELV-N32, ELV-N34, 32:6, or 34:6 were assayed after 12 h.
Cells were washed with 1× Dulbecco's Phosphate Buffered Saline (DPBS) containing no calcium or magnesium (GIBCO) and fixed for 10 mins using ice-cold 4% paraformaldehyde (PFA) followed by 15 mins incubation in 100% methanol. Cells were washed with 1× Phosphate Buffered Saline (PBS) pH 7.4 (GIBCO) and incubated in PBS containing 20 μM Hoechst 33258 (Molecular Probes) for 20 mins. Cells were then washed 3 times with 1×PBS and stored in 1×PBS at 4° C. until they were imaged for microscopy.
One 4×4 tile mosaic was acquired from the center of each well using a Zeiss 510 Meta laser confocal microscope and LSM 510 Meta software. Images were imported into image analysis software ImageJ (National Institutes of Health, Bethesda, Md.) and batch processed using custom macros. An Otsu auto threshold was applied to each image of Hoechst-stained nuclei, and the area of each detected object was recorded. Objects with areas <10 μm^2 were excluded from analysis. To estimate percentage non-pyknotic nuclei, a size cutoff value was chosen above which objects were assumed to be non-pyknotic. […]

ARPE-19 cells under UOS = experiment: Western blot of pro-survival and pro-apoptotic proteins in RPE cells under UOS; assay type: cell-based, human; conditions: for Prohibitin (type-1) expression: sodium salts and methyl ester forms, concentration-dependent 100-200 nM; for pro-apoptotic Bax / pro-apoptotic Bid / pro-apoptotic Bim: sodium salts or methyl esters
Experimental: ARPE19 cells at 75-80% confluence (72 h growth in DMEM/F12+10% FBS) in 6-well plates were serum-starved for 8 h before exposure. The serum-starved cells were treated with TNF-α (Sigma-Aldrich, St. Louis, Mo.) (10 ng/ml) and H2O2 (600 μM) to induce oxidative stress and challenged with increasing concentrations (50-500 nM) of VLC-PUFA (C32:6n3 and C34:6n3) simultaneously with oxidative stress for 16 h (apoptosis) and 6 h (Western-blot) before detection of apoptosis and harvesting for protein analysis. In some experiments, DHA at a concentration of 100 nM and 15-LOX-1 inhibitor PD146176 at a concentration of 1 μM was added to treat the RPE cells under stress. Cell extracts were made and protein concentrations adjusted by Bio-Rad (Hercules, Calif.) protein reagent and used for Western blot analysis.
Bcl-2 family proteins, SIRT1 and Proinhibitin (type-1), and Iduna proteins were analyze by Western blot analysis. In brief, 20-25 μg equivalents of each cell extracts were subject to electrophoresis on a 4-12% gel (Promega) at 125 V for 2 h. The proteins were transferred to nitrocellulose membrane by I-blot transfer apparatus. The membranes were subjected to treatment with primary antibodies specific for Bcl-2, Bcl-xL, Bax, Bid, Bim, SIRT1 and Prohibitin (type-1) (Santa Cruz Biotechnology) and Iduna antibody (Neuro-Mab Lab, UCLA, Los Angeles, Calif.) overnight at 4° C. and probed for 45 mins with secondary antibody, goat anti-mouse Ig:horseradish peroxidase, and horseradish peroxidase-conjugated anti-biotin antibody, and then proteins were evaluated by using an ECL kit (Amersham).

ARPE-19 cells = experiment: UOS-induced apoptosis in ARPE-19 cells (Hoechst-positive pyknotic cells); assay type: cell-based, human; conditions: 1 μM, RPE cells undergoing UOS
Experimental: FIGS. 6A and 6B depicts immunostaining of primary human RPE cells using specific markers ZO-1 (Zona occludens-1), RPE65, MITF (Micro-ophtalmia-associated Transcription Factor) and β-catenin, as well as light microscopy depicting primary human RPE cell morphology at different passages in culture. ARPE-19 cells were grown and maintained in T-75 mM flasks in DMEM F-12 medium containing 10% FBS and incubated at 37° C. with a constant supply of 5% CO2. Cells at 75-80% confluence (72 h growth in DMEM/F12+10% FBS) in 6-well plates were serum-starved for 8 h before exposure. The serum-starved cells were treated with TNF-α (Sigma-Aldrich, St. Louis, Mo.) (10 ng/ml) and H2O2 (600 μM) to induce oxidative stress and challenged with increasing concentrations (50-500 nM) of VLC-PUFA (C32:6n3 and C34:6n3) simultaneously with oxidative stress for 16 h (apoptosis) and 6 h (Western-blot) before detection of apoptosis and harvesting for protein analysis. In some experiments, DHA at a concentration of 100 nM and 15-LOX-1 inhibitor PD146176 at a concentration of 1 μM was added to treat the RPE cells under stress. Cell extracts were made and protein concentrations adjusted by Bio-Rad (Hercules, Calif.) protein reagent and used for Western blot analysis. To assess cell death, hRPE and ARPE-19 cells were fixed with methanol for 15 mins, washed with 1×PBS then loaded with 2 μM Hoechst dissolved in a Locke's solution (Promega) and incubated for another 15 mins before imaging. Cells were then viewed by using a Zeiss LSM 510 confocal microscope under UV fluorescence. Images were recorded and cell apoptosis was assessed by using an automated unbiased method.

Compound	Prohibitin (type-1) expression (ARPE-19 cells under UOS)	pro-apoptotic Bax (ARPE-19 cells under UOS)	pro-apoptotic Bid (ARPE-19 cells under UOS)	pro-apoptotic Bim (ARPE-19 cells under UOS)	other results
CC/C=C\C[C@H](O)\C=C/C=C/C=C/[C@H](O)C/C=C\C/C=C\CCC(=O)O [NPD1, 10R,17S-dihydroxy-docosa-4Z,7Z,11E,13E,15Z,19Z-hexaenoic acid]					apoptosis (primary human RPE cells): 11%
MK801 maleate [reference compound]					NMDA excitotoxicity ([1]; 10 μM): overcome
CC/C=C\C[C@H](O)\C=C/C=C/C=C/[C@H](O)C/C=C\C/C=C\CCCCCCCCCCCCCCC(=O)O [ELV-N34, (16Z,19Z,22R,23E,25E,27Z,29S,31Z)-22,29-dihydroxytetra-triaconta-16,19,23,25,27,31-hexaenoic acid]	upregulated	decreased	decreased	decreased	NMDA-induced neuronal death ([1]; ELV (Na or Me) 200 nM or 500 nM added along with NMDA 25, 50 or 100 μM, 12 h): compensated for
CC/C=C\C[C@H](O)\C=C/C=C/C=C/[C@H](O)C/C=C\C/C=C\CCCCCCCCCCCCC(=O)O [ELV-N32, (14Z,17Z,20R,21E,23E,25Z,27S,29Z)-20,27-dihydroxydo-triaconta-14,17,21,23,25,29-hexaenoic acid]	upregulated	decreased	decreased	decreased	
c1ccc2c(c1)SCc1c-2[nH]c2ccccc12 [PD146176, reference compound]					effect of 15-LOX-1 inhibitor on ELV-mediated inhibition of apoptosis (ARPE-19 cells): compensate for ELV-mediated inhibition of apoptosis; effect of 15-LOX-1 inhibitor on ELV-induced upregulation (ARPE-19 cells under UOS; 1 μM, ARPE-19 cells undergoing UOS): blocked these effects
